Experiments:
[1] = tested on: Tribolium castaneum; experiment: Feeding deterrent activity against adult Tribolium castaneum (red flour beetle) on compound pre-treated wheat flour disks assessed as food utilization rate at 3 ppm after 3 days by flour disk bioassay (reference value: 20.59 +/-1.47%); format: functional
[2] = tested on: Sitophilus zeamais; experiment: Feeding deterrent activity against adult Sitophilus zeamais on compound pretreated wheat flour disks at 3 ppm after 3 days by flour disk bioassay; format: functional
[3] = tested on: Tribolium castaneum; experiment: Feeding deterrent activity against adult Tribolium castaneum (red flour beetle) on compound pre-treated wheat flour disks at 30 ppm after 3 days by flour disk bioassay; format: functional
[4] = tested on: Tribolium castaneum; experiment: Feeding deterrent activity against adult Tribolium castaneum (red flour beetle) on compound pre-treated wheat flour disks assessed as relative growth rate at 3 ppm after 3 days by flour disk bioassay (reference value: 29.49 +/-1.35 ug/mg/day); format: functional
[5] = tested on: Sitophilus zeamais; experiment: Feeding deterrent activity against adult Sitophilus zeamais on compound pretreated wheat flour disks assessed as food utilization rate at 300 ppm after 3 days by flour disk bioassay (reference value: 11.09 +/-1.12%); format: functional
[6] = tested on: Tribolium castaneum; experiment: Feeding deterrent activity against adult Tribolium castaneum (red flour beetle) on compound pre-treated wheat flour disks assessed as relative food consumption rate at 10 ppm after 3 days by flour disk bioassay (reference value: 143.22 +/-4.32 ug/mg/day); format: functional
[7] = tested on: Tribolium castaneum; experiment: Feeding deterrent activity against adult Tribolium castaneum (red flour beetle) on compound pre-treated wheat flour disks assessed as food utilization rate at 10 ppm after 3 days by flour disk bioassay (reference value: 20.59 +/-1.47%); format: functional
[8] = tested on: Tribolium castaneum; experiment: Feeding deterrent activity against adult Tribolium castaneum (red flour beetle) on compound pre-treated wheat flour disks assessed as mortality at 100 ppm after 3 days by flour disk bioassay (reference value: 0%); format: functional
[9] = tested on: Tribolium castaneum; experiment: Feeding deterrent activity against adult Tribolium castaneum (red flour beetle) on compound pre-treated wheat flour disks assessed as relative growth rate at 10 ppm after 3 days by flour disk bioassay (reference value: 29.49 +/-1.35 ug/mg/day); format: functional
[10] = tested on: Sitophilus zeamais; experiment: Feeding deterrent activity against adult Sitophilus zeamais on compound pretreated wheat flour disks after 3 days by flour disk bioassay; format: functional, organism-based
[11] = tested on: Sitophilus zeamais; experiment: Feeding deterrent activity against adult Sitophilus zeamais on compound pretreated wheat flour disks at 30 ppm after 3 days by flour disk bioassay; format: functional
[12] = tested on: Sitophilus zeamais; experiment: Feeding deterrent activity against adult Sitophilus zeamais on compound pretreated wheat flour disks assessed as food utilization rate at 1000 ppm after 3 days by flour disk bioassay (reference value: 11.09 +/-1.12%); format: functional
[13] = tested on: Tribolium castaneum; experiment: Feeding deterrent activity against adult Tribolium castaneum (red flour beetle) on compound pre-treated wheat flour disks assessed as relative food consumption rate at 1000 ppm after 3 days by flour disk bioassay (reference value: 143.22 +/-4.32 ug/mg/day); format: functional
[14] = tested on: Tribolium castaneum; experiment: Feeding deterrent activity against adult Tribolium castaneum (red flour beetle) on compound pre-treated wheat flour disks at 3 ppm after 3 days by flour disk bioassay; format: functional
[15] = tested on: Sitophilus zeamais; experiment: Feeding deterrent activity against adult Sitophilus zeamais on compound pretreated wheat flour disks assessed as relative growth rate at 30 ppm after 3 days by flour disk bioassay (reference value: 13.61 +/-1.13 ug/mg/day); format: functional
[16] = tested on: Sitophilus zeamais; experiment: Feeding deterrent activity against adult Sitophilus zeamais on compound pretreated wheat flour disks assessed as food utilization rate at 30 ppm after 3 days by flour disk bioassay (reference value: 11.09 +/-1.12%); format: functional
[17] = tested on: Sitophilus zeamais; experiment: Feeding deterrent activity against adult Sitophilus zeamais on compound pretreated wheat flour disks assessed as relative growth rate at 3 ppm after 3 days by flour disk bioassay (reference value: 13.61 +/-1.13 ug/mg/day); format: functional
[18] = tested on: Tribolium castaneum; experiment: Feeding deterrent activity against adult Tribolium castaneum (red flour beetle) on compound pre-treated wheat flour disks assessed as food utilization rate at 100 ppm after 3 days by flour disk bioassay (reference value: 20.59 +/-1.47%); format: functional
[19] = tested on: Sitophilus zeamais; experiment: Feeding deterrent activity against adult Sitophilus zeamais on compound pretreated wheat flour disks at 100 ppm after 3 days by flour disk bioassay; format: functional
[20] = tested on: Tribolium castaneum; experiment: Feeding deterrent activity against adult Tribolium castaneum (red flour beetle) on compound pre-treated wheat flour disks assessed as mortality at 3 ppm after 3 days by flour disk bioassay (reference value: 0%); format: functional
[21] = tested on: Sitophilus zeamais; experiment: Feeding deterrent activity against adult Sitophilus zeamais on compound pretreated wheat flour disks assessed as food utilization rate at 3 ppm after 3 days by flour disk bioassay (reference value: 11.09 +/-1.12%); format: functional
[22] = tested on: Tribolium castaneum; experiment: Feeding deterrent activity against adult Tribolium castaneum (red flour beetle) on compound pre-treated wheat flour disks assessed as mortality at 300 ppm after 3 days by flour disk bioassay (reference value: 0%); format: functional
[23] = tested on: Tribolium castaneum; experiment: Feeding deterrent activity against adult Tribolium castaneum (red flour beetle) on compound pre-treated wheat flour disks assessed as mortality at 10 ppm after 3 days by flour disk bioassay (reference value: 0%); format: functional
[24] = tested on: Tribolium castaneum; experiment: Feeding deterrent activity against adult Tribolium castaneum (red flour beetle) on compound pre-treated wheat flour disks assessed as relative growth rate at 1000 ppm after 3 days by flour disk bioassay (reference value: 29.49 +/-1.35 ug/mg/day); format: functional
[25] = tested on: Sitophilus zeamais; experiment: Feeding deterrent activity against adult Sitophilus zeamais on compound pretreated wheat flour disks assessed as relative growth rate at 1000 ppm after 3 days by flour disk bioassay (reference value: 13.61 +/-1.13 ug/mg/day); format: functional
[26] = tested on: Tribolium castaneum; experiment: Feeding deterrent activity against adult Tribolium castaneum (red flour beetle) on compound pre-treated wheat flour disks assessed as relative growth rate at 100 ppm after 3 days by flour disk bioassay (reference value: 29.49 +/-1.35 ug/mg/day); format: functional
[27] = tested on: Sitophilus zeamais; experiment: Feeding deterrent activity against adult Sitophilus zeamais on compound pretreated wheat flour disks assessed as relative food consumption rate at 3 ppm after 3 days by flour disk bioassay (reference value: 122.72 +/-4.32 ug/mg/day); format: functional
[28] = tested on: Sitophilus zeamais; experiment: Feeding deterrent activity against adult Sitophilus zeamais on compound pretreated wheat flour disks assessed as relative growth rate at 300 ppm after 3 days by flour disk bioassay (reference value: 13.61 +/-1.13 ug/mg/day); format: functional
[29] = tested on: Tribolium castaneum; experiment: Feeding deterrent activity against adult Tribolium castaneum (red flour beetle) on compound pre-treated wheat flour disks at 100 ppm after 3 days by flour disk bioassay; format: functional
[30] = tested on: Tribolium castaneum; experiment: Feeding deterrent activity against adult Tribolium castaneum (red flour beetle) on compound pre-treated wheat flour disks at 300 ppm after 3 days by flour disk bioassay; format: functional
[31] = tested on: Sitophilus zeamais; experiment: Feeding deterrent activity against adult Sitophilus zeamais on compound pretreated wheat flour disks assessed as relative food consumption rate at 30 ppm after 3 days by flour disk bioassay (reference value: 122.72 +/-4.32 ug/mg/day); format: functional
[32] = tested on: Sitophilus zeamais; experiment: Feeding deterrent activity against adult Sitophilus zeamais on compound pretreated wheat flour disks assessed as relative food consumption rate at 10 ppm after 3 days by flour disk bioassay (reference value: 122.72 +/-4.32 ug/mg/day); format: functional
[33] = tested on: Sitophilus zeamais; experiment: Feeding deterrent activity against adult Sitophilus zeamais on compound pretreated wheat flour disks assessed as mortality at 1000 ppm after 3 days by flour disk bioassay (reference value: 0%); format: functional
[34] = tested on: Tribolium castaneum; experiment: Feeding deterrent activity against adult Tribolium castaneum (red flour beetle) on compound pre-treated wheat flour disks assessed as mortality at 1000 ppm after 3 days by flour disk bioassay (reference value: 0%); format: functional
[35] = tested on: Tribolium castaneum; experiment: Feeding deterrent activity against adult Tribolium castaneum (red flour beetle) on compound pre-treated wheat flour disks after 3 days by flour disk bioassay; format: functional, organism-based

SMILES	ECI [1] [%]	FDI [2] [%]	FDI [3] [%]	Activity [4] [µg/mg/day]	ECI [5] [%]	Activity [6] [µg/mg/day]	ECI [7] [%]	mortality at 100 ppm [8] [%]	Activity [9] [µg/mg/day]	EC50 [10] [ppm]	FDI [11] [%]	ECI [12] [%]	Activity [13] [µg/mg/day]	FDI [14] [%]	Activity [15] [µg/mg/day]	ECI [16] [%]	Activity [17] [µg/mg/day]	ECI [18] [%]	FDI [19] [%]	mortality at 3 ppm [20] [%]	also measured
CCCCCCCc1cc(=O)c2ccccc2n1C [SCHINIFOLINE]	20.68	1.47	45.07	28.85	5.92	119.29	20.32	2	24.24	85.63	26.69	3.84	2.13	4.46	9.06	10.07	13.72	11.57	59.19	0	ECI [21]: 11.21%; mortality at 300 ppm [22]: 8%; mortality at 10 ppm [23]: 0%; Activity [24]: 0.07 µg/mg/day; Activity [25]: 0.4 µg/mg/day; Activity [26]: 6.17 µg/mg/day; Activity [27]: 122.39 µg/mg/day; Activity [28]: 2.04 µg/mg/day; FDI [29]: 66.28%; FDI [30]: 85.85%; Activity [31]: 89.93 µg/mg/day; Activity [32]: 114.13 µg/mg/day; mortality at 1000 ppm [33]: 16%; mortality at 1000 ppm [34]: 20%; EC50 [35]: 47.81 ppm
COc1ccc2c(OC)c3ccoc3nc2c1OC [SKIMMIANINE]	20.25	3.53	30.12	27.92	6.81	124.71	19.41	2	24.21	129.72	26.12	4.21	15.72	4.31	9.6	10.34	13.27	13.72	47.32	0	ECI [21]: 10.98%; mortality at 300 ppm [22]: 6%; mortality at 10 ppm [23]: 0%; Activity [24]: 1.23 µg/mg/day; Activity [25]: 0.77 µg/mg/day; Activity [26]: 8.49 µg/mg/day; Activity [27]: 120.9 µg/mg/day; Activity [28]: 3.07 µg/mg/day; FDI [29]: 57.45%; FDI [30]: 68.62%; Activity [31]: 92.84 µg/mg/day; Activity [32]: 112.77 µg/mg/day; mortality at 1000 ppm [33]: 10%; mortality at 1000 ppm [34]: 14%; EC50 [35]: 75.71 ppm

— ChEMBL document CHEMBL3045561, “Feeding deterrents from Zanthoxylum schinifolium against two stored-product insects” (J Agric Food Chem, 2009)
